Reference: publication PMC4496498, “Radiosynthesis, In Vivo Biological Evaluation, and Imaging of Brain Lesions with [^123I]-CLINME, a New SPECT Tracer for the Translocator Protein” (Disease Markers, 2015)
Where “and” joins values, the source holds several entries; their conditions need not be identical. Equal entries are not always repeated. Where two headings read alike, the source gives them in different places.

Columns and labels:
TPSO [1] = conditions: cited from earlier work
TSPO [2] = molecular target: T1, TSPO (Rattus norvegicus, UniProt P16257); conditions: competing drug 1 mg/Kg i.v. 5 min prior to tracer, rats, 30 min p.i.
Experimental: The saturation effect of [^123I]-CLINME uptake was studied in competition experiments by injecting CLINME (1 mg/Kg), 5 min prior to [^123I]-CLINME (0.7 MBq, 10 pmoles in 0.1 mL of 0.9% saline), via the tail vein, to 8–10-week-old male SD rats.
The drugs were dissolved in dimethyl sulfoxide/saline (1 : 5) and injected intravenously 5 min prior to [^123I]-CLINME. Groups of rats (n = 3-4) were sacrificed by CO2 administration followed by cervical fracture 30 min after administration of [^123I]-CLINME and peripheral organs (liver, spleen, lung, heart, kidney, and adrenals), blood, olfactory bulbs, and the remainder of the brain were removed. The radioactivity concentrations were calculated as described previously. Results were analysed by one-way analysis of variance (ANOVA) followed by Tukey's post hoc test for comparing the tissue radioactivity concentrations in the treated animals (n = 3-4) and in the controls (n = 6). The criterion for significance was P < 0.05.

TSPO [3] = molecular target: T1, TSPO; experiment: In vitro autoradiography with [^125I]-CLINME on lesioned brain tissue; assay type: binding, SD rats; set-up: from tissue; host or cells: male Sprague-Dawley rats: peripheral organs and brain in vivo; AMPA-lesioned striatum; brain sections; conditions: autoradiography, 16 nM [^125I]-CLINME
[4] = In vivo biodistribution of [^123I]-CLINME; set-up: species or system Sprague-Dawley (SD) rats; conditions: for Biodistribution, Adrenals / Biodistribution, Blood / Biodistribution, Heart / Biodistribution, Kidney / Biodistribution, Liver / Biodistribution, Lungs / Biodistribution, Olfactory bulbs / Biodistribution, Spleen / Biodistribution, Thyroid / Biodistribution, Brain: SD male rats, i.v.; for Biodistribution, Brain: remainder of the brain
Experimental: No carrier added [^123I]-CLINME (0.7 MBq, 10 pmoles) dissolved in 0.9% saline (0.1 mL) was administered to 8–10-week-old male Sprague-Dawley (SD) rats (n = 4–6) via tail vein injection in a volume of 0.1 mL. At 5, 15, and 30 min and 1, 3, and 6 h after injection (p.i.) of the [^123I]-CLINME, the rats were sacrificed by CO2 administration followed by cervical fracture. […] Samples of organs and tissues were weighed and the radioactivity was measured using an automated γ-counter. The percent of injected dose (%ID) was calculated by comparison to a diluted standard solution derived from the initial injected sample. Radioactivity concentrations were expressed as percent of injected dose per gram of wet tissue (% ID/g).

[5] = Metabolite studies (radio-TLC of tissue and plasma extracts); assay type: in vivo, SD rats; conditions: rats
Experimental: Groups of male SD rats were injected with [^123I]-CLINME (7.4 MBq in 0.1 mL of 0.9% saline) and sacrificed at 15, 60, and 180 min p.i. Adrenals, kidney, heart, and brain were quickly excised.
Tissue fractions (200 mg) were treated with acetonitrile (2 mL) and homogenised, and the mixture was centrifuged at 2,000 rpm. The supernatant was removed and the pellet was treated for a second time, as above and the combined supernatants concentrated to 50 μL. Plasma (0.2 mL) separated from blood was extracted with acetonitrile and concentrated. The concentrated extracts were applied onto silica gel C18 plates with a preconcentration zone (Merck, Darmstadt, Germany) and developed with ethyl acetate. The radioactivity distribution was measured using a static radiochromatogram analyser (Berthold Co.).

TSPO [6] = molecular target: T1, TSPO; experiment: SPECT imaging of unilateral excitotoxic (AMPA) striatum lesion; assay type: in vivo, SD rats; set-up: from tissue; host or cells: male Sprague-Dawley rats: peripheral organs and brain in vivo; AMPA-lesioned striatum; brain sections; conditions: AMPA lesion rat model
Experimental: Lesioning was performed by stereotaxically injecting 7.5 nmol α-amino-3-hydroxy-5-methylisoxazole-4-propionic acid (AMPA) unilaterally into the striatum. Male SD rats (317 ± 56 g) were anaesthetised with inhaled isoflurane in O2 (5% induction, ~2% maintenance thereafter) and positioned in a stereotaxic frame (Stoelting Co., USA). A 1.5 cm incision was made in the scalp to reveal the skull surface and a burr hole was drilled over the injection site. […] Following the injection, the needle was left in situ for a further 5 min to allow the fluid to disperse. After the needle was withdrawn, the incision was sutured and cleansed. Animals were given a week to recover prior to imaging. Analgesia was provided by subcutaneous administration of 0.05 mg/Kg buprenorphine.
Two hours prior to [^123I]-CLINME administration, thyroid blocking was performed with an intraperitoneal injection of 2 mg/Kg potassium iodide. [^123I]-CLINME (74–148 MBq in 0.1 mL of 0.9% saline, S.A. > 80 GBq/μmol) was injected via the tail vein. […]
SPECT volumes were reconstructed with an Ordered Subset Expectation Maximisation iterative reconstruction algorithm using 3 iterations and 8 subsets. […] At each of the time points p.i., the ratio of the mean activity in the lesion VOI compared to the contralateral control VOI was determined. […]

TSPO [7] = molecular target: T1, TSPO; set-up: from tissue; method as in PMID 17680643; conditions: same animal model; cited from earlier work
TPSO [8] = conditions: cited from earlier work; remark: listed apart in the source

## CCN(CC)C(=O)Cc1c(-c2ccc(I)cc2)nc2ccc(Cl)cn12 [CLINDE]
TPSO [1]
  selectivity for the TPSO over the CBR: 200 fold

## Ro 5-4864
TSPO [2]
  reduction of uptake of [^123I]-CLINME in the blood: not significant
TSPO [2]; vs controls
  decrease of [^123I]-CLINME uptake in the heart: 77%
  decrease of [^123I]-CLINME uptake in the kidney: 68%
  decrease of [^123I]-CLINME uptake in the lungs: 62%
  decrease of [^123I]-CLINME uptake in the olfactory bulbs: nonsignificant reduction
  decrease of [^123I]-CLINME uptake in the remainder of the brain: 23%
  increase of [^123I]-CLINME concentration in the adrenals: 73%

## CCN(C)C(=O)Cc1c(-c2ccc([125I])cc2)nc2ccc(Cl)cn12 [[^125I]-CLINME]
TSPO [3]
  radioligand binding in the lesioned striatum compared to the contralateral one: significantly increased

## CCN(C)C(=O)Cc1c(-c2ccc([123I])cc2)nc2ccc(Cl)cn12 [[^123I]-CLINME]
[4]; 5 min p.i.
  Biodistribution, Adrenals: 2.89 ± 0.48 %ID/g
  Biodistribution, Blood: 0.18 ± 0.02 %ID/g
  Biodistribution, Heart: 3.28 ± 0.30 %ID/g
  Biodistribution, Kidney: 1.82 ± 0.20 %ID/g
  Biodistribution, Liver: 0.70 ± 0.10 %ID/g
  Biodistribution, Lungs: 7.88 ± 0.62 %ID/g
  Biodistribution, Olfactory bulbs: 0.38 ± 0.03 %ID/g
  Biodistribution, Spleen: 2.00 ± 0.55 %ID/g
  Biodistribution, Thyroid: 4.62 ± 2.17 %ID/g
  Biodistribution, Brain: 0.20 ± 0.02 %ID/g
[4]; 15 min p.i.
  Biodistribution, Adrenals: 4.71 ± 0.26 %ID/g
  Biodistribution, Blood: 0.09 ± 0.01 %ID/g
  Biodistribution, Heart: 3.53 ± 0.23 %ID/g
  Biodistribution, Kidney: 1.75 ± 0.07 %ID/g
  Biodistribution, Liver: 0.68 ± 0.07 %ID/g
  Biodistribution, Lungs: 3.53 ± 0.44 %ID/g
  Biodistribution, Olfactory bulbs: 0.28 ± 0.04 %ID/g
  Biodistribution, Spleen: 2.65 ± 0.40 %ID/g
  Biodistribution, Thyroid: 5.62 ± 1.24 %ID/g
  Biodistribution, Brain: 0.10 ± 0.01 %ID/g
[4]; 30 min p.i.
  Biodistribution, Adrenals: 7.55 ± 1.38 %ID/g
  Biodistribution, Blood: 0.08 ± 0.01 %ID/g
  Biodistribution, Heart: 3.32 ± 0.31 %ID/g
  Biodistribution, Kidney: 1.78 ± 0.18 %ID/g
  Biodistribution, Liver: 0.51 ± 0.07 %ID/g
  Biodistribution, Lungs: 2.45 ± 0.30 %ID/g
  Biodistribution, Olfactory bulbs: 0.34 ± 0.01 %ID/g
  Biodistribution, Spleen: 2.21 ± 0.15 %ID/g
  Biodistribution, Thyroid: 7.37 ± 2.14 %ID/g
  Biodistribution, Brain: 0.08 ± 0.00 %ID/g
[4]; 1 hour p.i.
  Biodistribution, Adrenals: 6.77 ± 0.54 %ID/g
  Biodistribution, Blood: 0.06 ± 0.00 %ID/g
  Biodistribution, Kidney: 1.16 ± 0.18 %ID/g
  Biodistribution, Liver: 0.42 ± 0.07 %ID/g
  Biodistribution, Lungs: 1.68 ± 0.10 %ID/g
  Biodistribution, Olfactory bulbs: 0.26 ± 0.05 %ID/g
  Biodistribution, Spleen: 1.76 ± 0.12 %ID/g
  Biodistribution, Thyroid: 6.46 ± 2.26 %ID/g
  Biodistribution, Brain: 0.06 ± 0.01 %ID/g
[4]; 3 hours p.i.
  Biodistribution, Adrenals: 6.65 ± 0.56 %ID/g
  Biodistribution, Blood: 0.04 ± 0.00 %ID/g
  Biodistribution, Heart: 1.28 ± 0.13 %ID/g
  Biodistribution, Kidney: 0.70 ± 0.05 %ID/g
  Biodistribution, Liver: 0.23 ± 0.01 %ID/g
  Biodistribution, Lungs: 0.95 ± 0.12 %ID/g
  Biodistribution, Olfactory bulbs: 0.25 ± 0.01 %ID/g
  Biodistribution, Spleen: 1.02 ± 0.14 %ID/g
  Biodistribution, Thyroid: 3.41 ± 1.10 %ID/g
  Biodistribution, Brain: 0.03 ± 0.00 %ID/g
[4]; 6 hours p.i.
  Biodistribution, Adrenals: 8.34 ± 0.71 %ID/g
  Biodistribution, Blood: 0.03 ± 0.00 %ID/g
  Biodistribution, Heart: 0.72 ± 0.14 %ID/g
  Biodistribution, Kidney: 0.51 ± 0.09 %ID/g
  Biodistribution, Liver: 0.21 ± 0.05 %ID/g
  Biodistribution, Lungs: 0.68 ± 0.08 %ID/g
  Biodistribution, Olfactory bulbs: 0.17 ± 0.05 %ID/g
  Biodistribution, Spleen: 0.67 ± 0.09 %ID/g
  Biodistribution, Thyroid: 4.11 ± 1.15 %ID/g
  Biodistribution, Brain: 0.02 ± 0.00 %ID/g
[4]; rats
  ratio of uptake olfactory bulbs to blood: 6
[4]; rats, after 30 min to 6 h p.i.
  plateau of activity in the adrenals: ≈ 7.5 % ID/g
[4]; rats, at 5 or 15 min p.i.
  peak activity in heart: 3.5 % ID/g
  peak activity in kidney: 1.8 % ID/g
  peak activity in liver: 0.7 % ID/g
  peak activity in lung: 7.9 % ID/g
  peak activity in spleen: 2.7 % ID/g
[4]; rats, at 5 min
  ratio of uptake olfactory bulbs versus remainder of the brain: 2
[4]; rats, at 3 h, constant till 6 h
  uptake in the thyroid: 4%
[4]; rats, at 6 h
  activity in liver, spleen, kidney, heart, and lung: less than 0.7 % ID/g
  ratio of uptake olfactory bulbs versus remainder of the brain: 8
[4]; rats, increase from 5 min to 1 h
  uptake in the thyroid: 4–7%
[4]; rats, throughout the time of measurement
  concentration in blood: < 0.18 % ID/g
[5]
  unchanged radiotracer in brain tissue: more than 95%
[5]; 15 min p.i.
  unchanged tracer in extracted activity, plasma: 15%
[5]; 1 h p.i.
  unchanged tracer in extracted activity, plasma: 5%
[5]; 3 h p.i.
  unchanged tracer in extracted activity, plasma: 2%
[5]; constant over the three hours studied
  unchanged [^123I]-CLINME in extractable radioactivity, adrenals, kidney, and heart: more than 95%
TSPO [6]; 60 min p.i.
  mean ratio ± SD (ipsilateral : contralateral) striatum uptake, SPECT: 2.2 and 2.18 ± 0.89
TSPO [6]; 120 min p.i.
  mean ratio ± SD (ipsilateral : contralateral) striatum uptake, SPECT: 1.86 ± 0.51

## CCCN(CCC)C(=O)Cc1c(-c2ccc(Cl)cc2)nc2ccc(Cl)cn12 [alpidem]
TPSO [1]
  selectivity for the TPSO over the CBR: 20 fold

## CCC(C)N([11CH3])C(=O)c1cc2ccccc2c(-c2ccccc2Cl)n1 (stereo not drawn) [[^11C]-PK11195]
TSPO [7]
  ratio lesion versus contralateral striatum, PET: 1.62 ± 0.05

## COc1ccc(OCC[18F])c(CN(C(C)=O)c2cc(F)ccc2Oc2ccccc2)c1 [[^18F]FE-DAA1106]
TPSO [8]
  ratio of uptake olfactory bulbs versus rest of brain: 3.5

## CCN(CC)C(=O)Cc1c(-c2ccc([123I])cc2)nc2ccc(Cl)cn12 [[^123I]-CLINDE]
TPSO [8]; at 8 h
  ratio of uptake olfactory bulbs versus rest of brain: 6

## CCN([11CH3])C(=O)Cc1c(-c2ccc(I)cc2)nc2ccc(Cl)cn12 [[^11C]-CLINME]
TSPO [7]
  ratio lesion versus contralateral striatum, PET: 2.14 ± 0.09
